In ChEMBL document CHEMBL1909046, “DrugMatrix in vitro pharmacology data”:

Columns and labels:
[1] = DRUGMATRIX: Purinergic P2X radioligand binding (ligand: [3H] alpha, beta-Methylene-ATP); assay type: cell membranes, Oryctolagus cuniculus, New Zealand albino, Urinary bladder, Membrane; settings: Not Active = under 50% inhibition at 10 µM
[2] = molecular target: Beta-2 adrenergic receptor (Homo sapiens, UniProt P07550); assay: DRUGMATRIX: Adrenergic beta2 radioligand binding (ligand: [3H] CGP-12177); assay type: cell membranes, CHO, Membrane; settings: cho; Not Active = under 50% inhibition at 10 µM
[3] = molecular target: D(3) dopamine receptor (Homo sapiens, UniProt P35462); assay: DRUGMATRIX: Dopamine D3 radioligand binding (ligand: [3H] Spiperone); assay type: cell membranes, CHO, Membrane
[4] = molecular target: T1, Alpha-1D adrenergic receptor (Homo sapiens, UniProt P25100); assay type: cell membranes, HEK293, Membrane; also: in other assays of this panel Not Active means under 50% inhibition at 10 µM
T1 sequence (P25100 whole entry): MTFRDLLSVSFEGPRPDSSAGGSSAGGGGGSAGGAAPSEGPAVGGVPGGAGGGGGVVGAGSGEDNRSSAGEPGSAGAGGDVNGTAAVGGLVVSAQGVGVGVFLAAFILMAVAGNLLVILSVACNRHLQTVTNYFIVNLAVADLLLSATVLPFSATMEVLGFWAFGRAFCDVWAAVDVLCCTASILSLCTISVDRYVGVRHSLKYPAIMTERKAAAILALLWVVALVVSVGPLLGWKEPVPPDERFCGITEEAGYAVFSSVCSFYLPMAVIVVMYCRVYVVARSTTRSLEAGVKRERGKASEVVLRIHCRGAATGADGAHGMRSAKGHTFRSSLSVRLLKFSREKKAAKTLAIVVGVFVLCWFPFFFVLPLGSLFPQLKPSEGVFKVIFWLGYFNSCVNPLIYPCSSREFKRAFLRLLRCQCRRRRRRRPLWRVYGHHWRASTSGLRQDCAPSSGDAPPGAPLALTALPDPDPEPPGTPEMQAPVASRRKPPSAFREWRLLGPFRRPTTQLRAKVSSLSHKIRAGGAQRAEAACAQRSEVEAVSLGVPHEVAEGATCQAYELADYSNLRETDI

[5] = molecular target: C-C chemokine receptor type 2 (Homo sapiens, UniProt P41597); assay type: cell membranes, CHO-K1, Membrane; settings: cho-k1; also: in other assays of this panel Not Active means under 50% inhibition at 10 µM
[6] = molecular target: Platelet-activating factor receptor (Homo sapiens, UniProt P25105); assay type: tissue-based; also: in other assays of this panel Not Active means under 50% inhibition at 10 µM
Sequence of Platelet-activating factor receptor (P25105 whole entry): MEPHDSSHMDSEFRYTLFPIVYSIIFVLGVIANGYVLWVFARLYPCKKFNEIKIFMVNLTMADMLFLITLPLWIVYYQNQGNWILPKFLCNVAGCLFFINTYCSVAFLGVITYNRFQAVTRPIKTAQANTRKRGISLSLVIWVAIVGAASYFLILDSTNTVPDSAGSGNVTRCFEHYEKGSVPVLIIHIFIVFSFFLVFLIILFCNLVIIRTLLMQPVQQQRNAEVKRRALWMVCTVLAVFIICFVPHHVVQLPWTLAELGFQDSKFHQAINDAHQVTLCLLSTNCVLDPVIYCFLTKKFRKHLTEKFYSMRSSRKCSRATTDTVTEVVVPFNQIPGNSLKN

Sequence of C-C chemokine receptor type 2 (P41597 whole entry): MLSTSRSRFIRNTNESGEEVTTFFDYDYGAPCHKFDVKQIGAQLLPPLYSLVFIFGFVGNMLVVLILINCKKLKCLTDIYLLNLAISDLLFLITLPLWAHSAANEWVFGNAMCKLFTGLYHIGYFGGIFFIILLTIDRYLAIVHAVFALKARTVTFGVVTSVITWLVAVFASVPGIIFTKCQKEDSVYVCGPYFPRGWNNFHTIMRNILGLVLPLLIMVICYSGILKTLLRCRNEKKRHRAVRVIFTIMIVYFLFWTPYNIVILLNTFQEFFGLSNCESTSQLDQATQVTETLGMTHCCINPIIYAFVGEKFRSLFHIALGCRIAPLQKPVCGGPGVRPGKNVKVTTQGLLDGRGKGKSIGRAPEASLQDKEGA
Sequence of Beta-2 adrenergic receptor (P07550 whole entry): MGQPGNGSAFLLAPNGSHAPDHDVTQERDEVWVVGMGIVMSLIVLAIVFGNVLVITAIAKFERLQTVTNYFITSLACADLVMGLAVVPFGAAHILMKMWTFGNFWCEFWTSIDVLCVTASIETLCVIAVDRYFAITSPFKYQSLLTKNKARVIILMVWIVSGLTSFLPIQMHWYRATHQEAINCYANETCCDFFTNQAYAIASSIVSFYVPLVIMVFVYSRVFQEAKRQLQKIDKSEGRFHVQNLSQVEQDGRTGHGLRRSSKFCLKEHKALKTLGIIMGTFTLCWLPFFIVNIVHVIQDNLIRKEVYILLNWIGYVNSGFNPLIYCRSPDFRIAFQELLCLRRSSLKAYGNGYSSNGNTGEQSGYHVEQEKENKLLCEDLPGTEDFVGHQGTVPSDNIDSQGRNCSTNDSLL
Sequence of D(3) dopamine receptor (P35462 whole entry): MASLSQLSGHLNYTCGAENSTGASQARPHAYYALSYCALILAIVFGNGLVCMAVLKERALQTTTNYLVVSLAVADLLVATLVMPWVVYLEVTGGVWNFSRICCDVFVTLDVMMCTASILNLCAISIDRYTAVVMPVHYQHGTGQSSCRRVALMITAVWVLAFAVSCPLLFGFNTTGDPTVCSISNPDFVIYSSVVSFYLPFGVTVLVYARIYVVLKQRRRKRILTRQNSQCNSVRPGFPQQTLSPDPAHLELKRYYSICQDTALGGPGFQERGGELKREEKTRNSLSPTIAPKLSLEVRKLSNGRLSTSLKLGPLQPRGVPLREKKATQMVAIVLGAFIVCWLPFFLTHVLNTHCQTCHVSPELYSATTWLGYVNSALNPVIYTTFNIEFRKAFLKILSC

SMILES | IC50 [1] | Ki [1] | IC50 [2] | IC50 ([3]; cho) | IC50 ([4]; hek293) | IC50 [5] | IC50 [6] | IC50 ([3]; read-out: IC50) [nM] | Ki ([3]; read-out: Ki) [nM] | IC50 ([4]; read-out: IC50) [nM] | Ki ([4]; read-out: Ki) [nM]
CC[C@H]1OC(=O)[C@H](C)[C@@H](O[C@H]2C[C@@](C)(OC)[C@@H](O)[C@H](C)O2)[C@H](C)[C@@H](O[C@@H]2O[C@H](C)C[C@H](N(C)C)[C@H]2O)[C@](C)(O)C[C@@H](C)C(=O)[C@H](C)[C@@H](O)[C@]1(C)O [ERYTHROMYCIN] | Not Active | Not Active | Not Active | Not Active | Not Active | Not Active | Not Active |  |  |  | 
NS(=O)(=O)c1cc(C(=O)O)c(NCc2ccco2)cc1Cl [FUROSEMIDE] | Not Active | Not Active | Not Active | Not Active | Not Active | Not Active | Not Active |  |  |  | 
COc1cc([C@@H]2c3cc4c(cc3[C@H](O)[C@H]3COC(=O)[C@H]23)OCO4)cc(OC)c1OC [PODOFILOX] | Not Active | Not Active | Not Active | Not Active | Not Active | Not Active | Not Active |  |  |  | 
CC(N)Cc1c[nH]c2ccc(OCc3cccs3)cc12 (stereo not drawn) [BW-723C86] | Not Active | Not Active | Not Active | Not Active | Not Active | Not Active | Not Active |  |  |  | 
O=C(O)COC(=O)Cc1ccccc1Nc1c(Cl)cccc1Cl [ACECLOFENAC] | Not Active | Not Active | Not Active | Not Active | Not Active | Not Active | Not Active |  |  |  | 
COC(=O)Nc1nc2ccc(Sc3ccccc3)cc2[nH]1 [FENBENDAZOLE] | Not Active | Not Active | Not Active | Not Active | Not Active | Not Active | Not Active |  |  |  | 
Cc1c(N)nc([C@H](CC(N)=O)NC[C@H](N)C(N)=O)nc1C(=O)N[C@H](C(=O)N[C@H](C)[C@@H](O)[C@H](C)C(=O)N[C@H](C(=O)NCCc1nc(-c2nc(C(=O)NCCC[S+](C)C)cs2)cs1)[C@@H](C)O)[C@@H](O[C@@H]1O[C@@H](CO)[C@@H](O)[C@H](O)[C@@H]1O[C@H]1O[C@H](CO)[C@@H](O)[C@H](OC(N)=O)[C@@H]1O)c1c[nH]cn1.[Br-] [BLEOMYCIN A2] | Not Active | Not Active | Not Active | Not Active | Not Active | Not Active | Not Active |  |  |  | 
C#C[C@]1(O)CC[C@H]2[C@@H]3CCC4=CC(=O)CC[C@@H]4[C@H]3CC[C@@]21C [NORETHINDRONE] | Not Active | Not Active | Not Active | Not Active | Not Active | Not Active | Not Active |  |  |  | 
CC(CN1c2ccccc2Sc2ccccc21)N(C)C (stereo not drawn) [PROMETHAZINE] | Not Active | Not Active | Not Active |  |  | Not Active | Not Active | 559 | 190 | 183 | 90
COc1cc(NC(C)CCCN)c2ncccc2c1 (stereo not drawn) [PRIMAQUINE] | Not Active | Not Active | Not Active | Not Active | Not Active | Not Active | Not Active |  |  |  | 
CCCCCCNC(=O)n1cc(F)c(=O)[nH]c1=O [CARMOFUR] | Not Active | Not Active | Not Active | Not Active | Not Active | Not Active | Not Active |  |  |  | 
O=c1[nH]c2ccccc2c2ccccc12 | Not Active | Not Active | Not Active | Not Active | Not Active | Not Active | Not Active |  |  |  | 
C=C(Cl)Cl [1,1-DICHLOROETHENE] | Not Active | Not Active | Not Active | Not Active | Not Active | Not Active | Not Active |  |  |  | 
